In patent publication EP1082099B1, “SURFACTANT FOR USE IN EXTERNAL PREPARATIONS FOR SKIN AND EXTERNAL PREPARATION FOR SKIN CONTAINING THE SAME” (Showa Denko K K, priority 1998, dated 1999):

What was measured:
[1] = system: three-dimensional skin model; test: Skin irritation test: MTT cytotoxicity on three-dimensional cultured skin model; format: cell-based; conditions: test substance in PBS pH 7, 1 hour exposure, 16 hours incubation, read from graph
Method: Using a three-dimensional skin model (trade name: Three-dimensional cultured skin model, manufactured by Gunze), skin irritation tests were performed. […] The test substances were adjusted with PBS (Phosphate Buffer Saline, pH 7) so that they were in various concentrations. To the thus-adjusted test substances was exposed the skin model for 1 hour. Thereafter, the test substances were washed and incubated for 16 hours in a medium attached to the above-described three-dimensional skin model. After the incubation, a solution of MTT (3-(4,5-dimethylthiazol-2-yl)-2,5-diphenyltetrazolium bromide) was added and pigments were extracted with isopropanol rendered acidic with hydrochloric acid, followed by measurement of absorbance at a wavelength of 570 nm. […] This value was called B. The MTT solution was added to PBS and extraction was performed similarly. Absorbance of the extract measured at a wavelength of 570 nm was named C. From these values was calculated cytotoxicity. Calculation was made according to the following equation. Cytotoxicity (%) = (1-(A-c)/(B-C)) x 100 [formula]
Plotting the concentration of a test substance on the axis of abscissa and cytotoxicity on the axis of ordinate, a graph was obtained, from which the concentration of a test compound at 50% cytotoxicity was read.

[2] = Skin penetration test of methylparaben through hairless mouse skin (two-chamber); format: in vitro ADME; conditions: Example 2; donor side phosphate buffer pH 7 with stated composition; after 5 hours
Method: One (donor side) of two chambers separated by a hairless mouse skin was filled with a phosphate buffer (pH 7) having dissolved therein a substance having the composition described in Table 3 and the other (receiver side) was filled with a phosphate buffer solution (pH 7). After 5 hours, the concentration of methylparaben on the receiver side was measured. […] As will be apparent from the results, surfactin suppressed the skin penetration of skin-irritating substances.
(§1) One (donor side) of two chambers separated by a hairless mouse skin was filled with a cosmetic having the composition described in Table 6 and the other (receiver side) was filled with a phosphate buffer solution (pH 7). After 5 hours, the concentration of methylparaben on the receiver side was measured.
as §1, with “14” for “6”

Concentration of methylparaben of receiver [2]	Structure (SMILES)	Concentration of surfactant at 50% cytotoxicity [1]
	CCCCCCCCCCCCOS(=O)(=O)[O-].[Na+] [SDS, sodium dodecylsulfate, reference compound]	0.2%
5.7 ppm	COC(=O)c1ccc(O)cc1 [0.1% Methylparaben, Methylparaben]	
